Laboratory results as given in patent EP0968998A1, “Cosmetic compositions, ceramide analogues with anti-elastase activity and process for their preparation” (ELF ATOCHEM S.A., priority 1998, dated 2000).

Test system: stratum corneum
Test: Skin barrier improvement: transepidermal (insensible) water loss (PIE), Servomed evaporimeter, cream applied to inner forearm
Type: in vivo, volontaires sains ayant une peau sèche
Settings: cream with 0,5 % (ex. 7, témoins), 1 % (ex. 4, 8), 5 % (ex. 6)
Text: Les exemples qui suivent permettent d'illustrer l'invention. […] Les valeurs sont exprimées en nombre d'onde par centimètre. - Résonance magnétique nucléaire (RMN) Les spectres sont réalisés au moyen d'un appareil BRUCKER DRX 500, à 500 MHz (^1H) et 125 MHz (^13C) dans le DMSO-d6. La calibration de l'appareil est effectuée au moyen de DMSO. Les déplacements chimiques sont exprimés en ppm. […] On utilise le N-succinyl-(Ala)3-p-nitroanilide en solution dans le tétrahydrofurane et une solution d'élastase à 100 mg/ml dans un mélange de glycérol et de tampon acétate de sodium (50/50; v/v), pH5. L'activité de l'enzyme est mesurée à 37°C dans 100 mM de tampon Tris-HCI, pH8 contenant 0,01 % de Triton X-100 (volume/volume) et 0,02 % d'azide de sodium (poids/volume). Le céramide à tester, solubilisé dans le tétrahydrofurane (concentration en THF = 0,5 % en volume) est préincubé en présence de l'enzyme (0,05 mg/ml) dans le tampon pendant 5 minutes à 37°C. On ajoute le N-succinyl-(Ala)3-p-nitroanilide (concentration finale : 250 µM) et on mesure la libération de la p-nitroaniline dans une cuve en quartz par spectrophotométrie à 410 nm. La capacité inhibitrice du céramide est exprimée en pourcentage d'inhibition (% I) selon la relation : %I = (1 -(Vi)/(Vo))×100 [formula] dans laquelle Vi et Vo sont les vitesses d'apparition de la p-nitroaniline en présence et en absence d'inhibiteur respectivement. - Mesure de l'amélioration de la barrière cutanée a) mesure de la Perte Insensible en Eau (PIE) La mesure de la PIE permet de quantifier la très faible quantité d'eau qui diffuse passivement à travers le stratum corneum. Ce paramètre représente un très bon index de la fonction barrière du stratum corneum. Cette méthode est surtout utilisée pour contrôler l'efficacité de formules cosmétiques qui, contenant certains types de lipides sont capables de diminuer la PIE et, en conséquence, d'empêcher la déshydratation du stratum corneum. La sonde est laissée en contact de la peau pendant 2 minutes environ de façon à atteindre une position d'équilibre. PIE = D'(dP)/(dx)(gradient de pression de vapeur) [formula] Les valeurs sont exprimées en g/m^2/heure et permettent de calculer un delta de PIE = PIE (peau traitée) - PIE (peau témoin). L'appareil utilisé est un Evaporimètre EPI de Servomed. Les mesures sont effectuées sur deux groupes de 15 volontaires sains ayant une peau sèche, avant l'application du produit (t=0) et après l'application (t=0,5 heure, 1 heure, 3 heures et 6 heures) sur la face interne des deux avant-bras. L'analogue de céramide selon l'invention ou le céramide témoin est incorporé dans une crème ayant la composition suivante (en % en poids) :
La teneur en analogue de céramide dans la crème est égale à 0,5 % (exemple 7), 1 % (exemples 4 et 8) et 5 % (exemple 6), et celle des céramides témoins (a) et (b) est égale à 0,5 %. La diminution des valeurs de PIE signifie une amélioration de la qualité de la barrière cutanée qui traduit un meilleur pouvoir retentionnel de l'eau au niveau de la couche cornée et donc une meilleure hydratation. b) hydratation cutanée L'eau peut être considérée comme un dipôle électrique capable de conduire l'électricité. Le transport d'électricité dans un champ donné est proportionnel à la quantité d'eau présente dans le stratum corneum. Plus une peau est riche en eau et plus le courant électrique passe rapidement entre 2 électrodes. Il existe donc un lien entre l'hydratation du stratum corneum et les modifications des propriétés électriques. Les mesures de capacitance, liée à la constante diélectrique de la peau, sont réalisées par le Cornéomètre Courage+Khazaka CM 200, dont la sonde présente une surface de contact avec la peau de 49 mm^2; cette sonde est appliquée avec une pression constante sur la surface cutanée à mesurer, et l'indice d'hydratation directement proportionnel au taux hydrique de surface est instantané.

CCCCCCCCCCCCCCCCCC(=O)NC(CC)(CO)COC(=O)CCCCCCCCCCCCCCCCC (centres unmarked) [Exemple 4, 1-stéaroyl-2-éthyl-2-stéaroylamino-1,3-propanediol]
Perte Insensible en Eau (PIE) M±s (t=0,5 heure after application): 3,89±0,85 g/m^2/heure
Perte Insensible en Eau (PIE) M±s (t=0 heure (before application, baseline)): 4,52±0,79 g/m^2/heure
Perte Insensible en Eau (PIE) M±s (t=1 heure after application): 2,95±1,15 g/m^2/heure
Perte Insensible en Eau (PIE) M±s (t=3 heures after application): 4,30±0,97 g/m^2/heure
Perte Insensible en Eau (PIE) M±s (t=6 heures after application): 4,00±1,24 g/m^2/heure
